{"source": "patent US20200078468A1", "about": "“NEUROTENSIN RECEPTOR BINDING CONJUGATES AND FORMULATIONS THEREOF” (priority 2016, published 2020)", "key": {"human NTSR1": {"target": "T1, human NTSR1 (Homo sapiens, UniProt P30989)", "T1 construct": "host or cells: HEK-293 cells (membrane preparations)", "T1 sequence (P30989 whole entry)": "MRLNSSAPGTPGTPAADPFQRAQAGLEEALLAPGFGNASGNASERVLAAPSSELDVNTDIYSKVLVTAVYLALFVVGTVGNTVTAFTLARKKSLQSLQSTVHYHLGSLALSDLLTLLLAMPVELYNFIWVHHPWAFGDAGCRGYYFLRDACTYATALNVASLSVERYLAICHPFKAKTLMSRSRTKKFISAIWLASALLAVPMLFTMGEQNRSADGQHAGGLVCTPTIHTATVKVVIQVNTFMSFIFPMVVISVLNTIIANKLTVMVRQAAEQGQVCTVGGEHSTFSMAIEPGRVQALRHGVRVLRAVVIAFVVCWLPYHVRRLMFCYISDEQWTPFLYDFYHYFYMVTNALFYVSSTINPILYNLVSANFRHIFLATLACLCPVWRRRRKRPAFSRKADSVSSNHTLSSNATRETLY", "test": "radioligand-receptor binding assay, [125I] labeled neurotensin (Eurofins Panlabs)", "conditions": "[125I] neurotensin 0.02 nM, membranes from NTSR1 expressing HEK-293 cells, 45 minute incubation, Cheng and Prusoff; read-out: NTSR1 binding Ki", "procedure": "Conjugates were assessed in an in vitro assay evaluating binding to NTSR1. A radioligand-receptor binding assay was conducted at Eurofins Panlabs (Taiwan) to determine the affinity of conjugates described herein to NTSR1. The assay measures binding of radiolabeled ligand, [^125I] labeled neurotensin, to human NTSR1 using membrane preparations from NTSR1 expressing HEK-293 cells (Human embryonic kidney cells 293). Membranes were incubated with radiolabeled neurotensin (0.02 nM) in the presence of conjugate/compound starting at a dose of either 100 nM, or 10 nM, using 3× serial dilutions to obtain a 6-pt curve. After a 45 minute incubation, membranes were filtered and washed 3× and counted to determine the remaining [^125I] neurotensin bound to the receptor. IC50 values were determined by a non-linear, least squares regression analysis using MathIQ™ (ID Business Solutions Ltd., UK). The Ki values were calculated using the equation of Cheng and Prusoff (Cheng and Prusoff, Biochem. Pharmacol. 22:3099-3108, 1973) using the observed IC50 of the tested conjugate/compound, the concentration of radioligand employed in the assay, and the historical values for the Kd of the ligand obtained at Eurofins."}, "[1]": {"test_system": "SW48 (human colon cancer cells)", "test": "inhibition of SW48 cell proliferation (CellTiter Glo)", "assay_type": "cell-based", "conditions": "NTSR1 scrambled compound; 72 hrs; read-out: SW-48 proliferation IC50", "procedure": "Conjugates were assessed in an in vitro assay evaluating inhibition of cell proliferation. SW48 (human colon cancer cells, ATCC®), cells were plated in 96 well, flat-bottomed plates (Costar) at a concentration of 5,000 cells/well. Cells were then incubated at 37° C. with 5% CO2 for 24 hrs. After 24 hrs, cells were treated with 0.01% DMSO or compound. Compounds were added at a starting dose of 10 μM and three fold serial dilutions were done for a total often points. Following compound addition, cells were incubated at 37° C. with 5% CO2 for 72 hrs. Proliferation was measured by CellTiter Glo reagent using the standard protocol (Promega) and a Glomax multi+detection system (Promega). Percent proliferation inhibition was calculated using the following formula: % inhibition=(control−treatment)/control*100. Control is defined as vehicle alone. IC50 curves were generated using the nonlinear regression analysis (four parameter) with GraphPad Prism 6.\nConjugates are assessed for receptor-dependent cytotoxicity by the difference between an NTSR1-targeting conjugate, and the corresponding conjugate with the same linker moiety and active agent where the NTSR1-targeting domain has been scrambled."}}, "note": "pIC50, pKi: −log10 of the molar value.", "data": [{"smiles": "CO[C@H]1C(=O)[C@]2(C)[C@@H](OC)C[C@H]3OC[C@@]3(OC(C)=O)[C@H]2[C@H](OC(=O)c2ccccc2)[C@]2(O)C[C@H](OC(=O)[C@H](OC(=O)OCCSSC(C)(C)[C@H](NC(C)=O)C(=O)N3CCC[C@H]3C(=O)N[C@@H](CCCNC(=N)N)C(=O)N[C@@H](CCCNC(=N)N)C(=O)N3CCC[C@H]3C(=O)N[C@@H](Cc3ccc(O)cc3)C(=O)N[C@H](C(=O)N[C@@H](CC(C)C)C(=O)O)C(C)(C)C)[C@@H](NC(=O)OC(C)(C)C)c3ccccc3)C(C)=C1C2(C)C", "note": "[Compound 2]", "values": [{"measurement": "pKi", "setting": "human NTSR1", "result": 8.40}]}, {"smiles": "CO[C@H]1C(=O)[C@]2(C)[C@@H](OC)C[C@H]3OC[C@@]3(OC(C)=O)[C@H]2[C@H](OC(=O)c2ccccc2)[C@]2(O)C[C@H](OC(=O)[C@H](OC(=O)CNC(=O)[C@H](CC(C)C)NC(=O)[C@H](Cc3ccccc3)NC(=O)CNC(=O)CCCCCN3C(=O)CC(SC(C)(C)[C@H](NC(C)=O)C(=O)N4CCC[C@H]4C(=O)N[C@@H](CCCNC(=N)N)C(=O)N[C@@H](CCCNC(=N)N)C(=O)N4CCC[C@H]4C(=O)N[C@@H](Cc4ccc(O)cc4)C(=O)N[C@H](C(=O)N[C@@H](CC(C)C)C(=O)O)C(C)(C)C)C3=O)[C@@H](NC(=O)OC(C)(C)C)c3ccccc3)C(C)=C1C2(C)C", "note": "(stereo partly shown) [Compound 3]", "values": [{"measurement": "pKi", "setting": "human NTSR1", "result": 8.79}]}, {"smiles": "CC[C@H](C)[C@H](NC(=O)[C@H](Cc1ccc(O)cc1)NC(=O)[C@@H]1CCCN1C(=O)[C@H](CCCNC(=N)N)NC(=O)[C@@H](CCCNC(=N)N)NC(=O)[C@@H]1CCCN1C(=O)[C@H](CCCCNC(=O)CCSC1CC(=O)N(CCCCCC(=O)NCC(=O)N[C@@H](Cc2ccccc2)C(=O)N[C@@H](CC(C)C)C(=O)NCC(=O)NCCCN2C(=O)CC(SCCC(=O)N(C)[C@@H](C)C(=O)O[C@H]3CC(=O)N(C)c4cc(cc(OC)c4Cl)C/C(C)=C/C=C/[C@@H](OC)[C@@]4(O)C[C@H](OC(=O)N4)[C@@H](C)[C@@H]4O[C@@]34C)C2=O)C1=O)NC(C)=O)C(=O)N[C@@H](C[Si](C)(C)C)C(=O)O", "note": "(stereo partly shown) [Compound 38]", "values": [{"measurement": "pKi", "setting": "human NTSR1", "result": 10.06}]}, {"smiles": "COc1cc2cc(c1Cl)N(C)C(=O)C[C@H](OC(=O)[C@H](C)N(C)C(=O)CCSC1CC(=O)N(CCCNC(=O)CNC(=O)[C@H](CC(C)C)NC(=O)[C@H](Cc3ccccc3)NC(=O)CNC(=O)CCCCCN3C(=O)CC(SCCC(=O)NCCCC[C@H](NC(C)=O)C(=O)N4CCC[C@H]4C(=O)N[C@H](CCCNC(=N)N)C(=O)N[C@@H](CCCNC(=N)N)C(=O)N4CCC[C@H]4C(=O)N[C@@H](Cc4ccc(O)cc4)C(=O)N[C@H](C(=O)N[C@@H](C[Si](C)(C)C)C(=O)O)[C@@H](C)OC)C3=O)C1=O)[C@]1(C)O[C@H]1[C@H](C)[C@@H]1C[C@@](O)(NC(=O)O1)[C@H](OC)/C=C/C=C(\\C)C2", "note": "(stereo partly shown) [Compound 39]", "values": [{"measurement": "pKi", "setting": "human NTSR1", "result": 9.10}]}, {"smiles": "COc1cc2cc(c1Cl)N(C)C(=O)C[C@H](OC(=O)[C@H](C)N(C)C(=O)CCSC1CC(=O)N(CCCNC(=O)CNC(=O)[C@H](CC(C)C)NC(=O)[C@H](Cc3ccccc3)NC(=O)CNC(=O)CCCCCN3C(=O)CC(SCCC(=O)NCCCC[C@H](NC(C)=O)C(=O)N4CCC[C@H]4C(=O)N[C@H](CCCNC(=N)N)C(=O)N[C@@H](CCCNC(=N)N)C(=O)N4CCC[C@H]4C(=O)N[C@@H](Cc4ccc(O)cc4)C(=O)N[C@H](C(=O)N[C@@H](C[Si](C)(C)C)C(=O)O)C(C)(C)C)C3=O)C1=O)[C@]1(C)O[C@H]1[C@H](C)[C@@H]1C[C@@](O)(NC(=O)O1)[C@H](OC)/C=C/C=C(\\C)C2", "note": "(stereo partly shown) [Compound 40]", "values": [{"measurement": "pKi", "setting": "human NTSR1", "result": 9.44}]}, {"smiles": "COc1cc2cc(c1Cl)N(C)C(=O)C[C@H](OC(=O)[C@H](C)N(C)C(=O)CCSC1CC(=O)N(CCCNC(=O)CNC(=O)[C@H](CC(C)C)NC(=O)[C@H](Cc3ccccc3)NC(=O)CNC(=O)CCCCCN3C(=O)CC(SCCC(=O)NCCCC[C@H](NC(C)=O)C(=O)N4CCC[C@H]4C(=O)N[C@H](CCCNC(=N)N)C(=O)N[C@@H](CCCNC(=N)N)C(=O)N4CCC[C@H]4C(=O)N[C@@H](Cc4ccc(O)cc4)C(=O)N[C@H](C(=O)N[C@@H](C[Si](C)(C)C)C(=O)O)C4CCCCC4)C3=O)C1=O)[C@]1(C)O[C@H]1[C@H](C)[C@@H]1C[C@@](O)(NC(=O)O1)[C@H](OC)/C=C/C=C(\\C)C2", "note": "(stereo partly shown) [Compound 41]", "values": [{"measurement": "pKi", "setting": "human NTSR1", "result": 9.05}]}, {"smiles": "COc1cc2cc(c1Cl)N(C)C(=O)C[C@H](OC(=O)[C@H](C)N(C)C(=O)CCSC1CC(=O)N(CCCNC(=O)CNC(=O)[C@H](CC(C)C)NC(=O)[C@H](Cc3ccccc3)NC(=O)CNC(=O)CCCCCN3C(=O)CC(SCCC(=O)NCCCC[C@H](NC(C)=O)C(=O)N4CCC[C@H]4C(=O)N[C@H](CCCNC(=N)N)C(=O)N[C@@H](CCCNC(=N)N)C(=O)N4CCC[C@H]4C(=O)N[C@@H](Cc4ccc(O)cc4)C(=O)N[C@H](C(=O)N[C@@H](C[Si](C)(C)C)C(=O)O)C4CCCC4)C3=O)C1=O)[C@]1(C)O[C@H]1[C@H](C)[C@@H]1C[C@@](O)(NC(=O)O1)[C@H](OC)/C=C/C=C(\\C)C2", "note": "(stereo partly shown) [Compound 42]", "values": [{"measurement": "pKi", "setting": "human NTSR1", "result": 9.19}]}, {"smiles": "CC[C@H](C)[C@H](NC(=O)[C@H](Cc1c[nH]c2ccccc12)NC(=O)[C@@H]1CCCN1C(=O)[C@H](CCCNC(=N)N)NC(=O)[C@@H](CCCNC(=N)N)NC(=O)[C@@H]1CCCN1C(=O)[C@H](CCCCNC(=O)CCSC1CC(=O)N(CCCCCC(=O)NCC(=O)N[C@@H](Cc2ccccc2)C(=O)N[C@@H](CC(C)C)C(=O)NCC(=O)NCCCN2C(=O)CC(SCCC(=O)N(C)[C@@H](C)C(=O)O[C@H]3CC(=O)N(C)c4cc(cc(OC)c4Cl)C/C(C)=C/C=C/[C@@H](OC)[C@@]4(O)C[C@H](OC(=O)N4)[C@@H](C)[C@@H]4O[C@@]34C)C2=O)C1=O)NC(C)=O)C(=O)N[C@@H](C[Si](C)(C)C)C(=O)O", "note": "(stereo partly shown) [Compound 43]", "values": [{"measurement": "pKi", "setting": "human NTSR1", "result": 8.88}]}, {"smiles": "CC[C@H](C)[C@@H]([C@@H](CC(=O)N1CCC[C@H]1[C@H](OC)[C@@H](C)C(=O)N[C@H](C)[C@@H](O)c1ccccc1)OC)N(C)C(=O)[C@@H](NC(=O)[C@H](C(C)C)N(C)C(=O)OCc1ccc(NC(=O)[C@H](CCCNC(N)=O)NC(=O)[C@@H](NC(=O)CCCCCN2C(=O)CC(SCCC(=O)NCCOCCOCCOCCOCCC(=O)NCCCC[C@H](NC(C)=O)C(=O)N3CCC[C@H]3C(=O)N[C@@H](CC(C)C)C(=O)N3CCC[C@H]3C(=O)N(C)[C@@H](CCCNC(=N)N)C(=O)N[C@H](C(=O)N[C@@H](CCCNC(=N)N)C(=O)N[C@@H](Cc3ccc(O)cc3)C(=O)O)C(C)(C)C)C2=O)C(C)C)cc1)C(C)C", "note": "(stereo partly shown) [Compound 95]", "values": [{"measurement": "pIC50", "setting": "[1]", "result": 7.22}]}, {"smiles": "CC[C@H](C)[C@@H]([C@@H](CC(=O)N1CCC[C@H]1[C@H](OC)[C@@H](C)C(=O)N[C@H](C)[C@@H](O)c1ccccc1)OC)N(C)C(=O)[C@@H](NC(=O)[C@H](C(C)C)N(C)C(=O)OCc1ccc(NC(=O)[C@H](CCCNC(N)=O)CC(=O)[C@@H](NC(=O)CCCCCN2C(=O)CC(SCCC(=O)NCCOCCOCCOCCOCCOCCOCCOCCOCCC(=O)NCCCC[C@H](NC(C)=O)C(=O)N3CCC[C@H]3C(=O)N[C@@H](CC(C)C)C(=O)N3CCC[C@H]3C(=O)N(C)[C@@H](CCCNC(=N)N)C(=O)N[C@H](C(=O)N[C@@H](CCCNC(=N)N)C(=O)N[C@@H](Cc3ccc(O)cc3)C(=O)O)C(C)(C)C)C2=O)C(C)C)cc1)C(C)C", "note": "(stereo partly shown) [Compound 96]", "values": [{"measurement": "pIC50", "setting": "[1]", "result": 7.12}]}, {"smiles": "CCc1c2c(nc3ccc(O)cc13)-c1cc3c(c(=O)n1C2)COC(=O)[C@@]3(CC)OC(=O)OCCSSC(C)(C)[C@H](NC(C)=O)C(=O)N1CCC[C@H]1C(=O)N[C@@H](CC(C)C)C(=O)N1CCC[C@H]1C(=O)N[C@@H](CCCNC(=N)N)C(=O)N[C@H](C(=O)N[C@@H](CCCNC(=N)N)C(=O)N[C@@H](Cc1ccc(O)cc1)C(=O)O)C(C)(C)C", "note": "[Compound 97]", "values": [{"measurement": "pIC50", "setting": "[1]", "result": 6.91}]}, {"smiles": "CCc1c2c(nc3ccc(O)cc13)-c1cc3c(c(=O)n1C2)COC(=O)[C@@]3(CC)OC(=O)OCc1ccc(NC(=O)[C@H](CCCNC(N)=O)NC(=O)[C@@H](NC(=O)CCCCCN2C(=O)CC(SC(C)(C)[C@H](NC(C)=O)C(=O)N3CCC[C@H]3C(=O)N[C@@H](CC(C)C)C(=O)N3CCC[C@H]3C(=O)N[C@@H](CCCNC(=N)N)C(=O)N[C@H](C(=O)N[C@@H](CCCNC(=N)N)C(=O)N[C@@H](Cc3ccc(O)cc3)C(=O)O)C(C)(C)C)C2=O)C(C)C)cc1", "note": "(stereo partly shown) [Compound 98]", "values": [{"measurement": "pIC50", "setting": "[1]", "result": 7.21}]}, {"smiles": "CCc1c2c(nc3ccc(O)cc13)-c1cc3c(c(=O)n1C2)COC(=O)[C@@]3(CC)OC(=O)CNC(=O)CNC(=O)[C@H](CC(C)C)NC(=O)[C@H](Cc1ccccc1)NC(=O)CNC(=O)CCCCCN1C(=O)CC(SC(C)(C)[C@H](NC(C)=O)C(=O)N2CCC[C@H]2C(=O)N[C@@H](CC(C)C)C(=O)N2CCC[C@H]2C(=O)N[C@@H](CCCNC(=N)N)C(=O)N[C@H](C(=O)N[C@@H](CCCNC(=N)N)C(=O)N[C@@H](Cc2ccc(O)cc2)C(=O)O)C(C)(C)C)C1=O", "note": "(stereo partly shown) [Compound 99]", "values": [{"measurement": "pIC50", "setting": "[1]", "result": 6.11}]}]}
